The text below walks through data of patent US12624067B2, “Cyclic peptide, cell scaffold material, cell separating material, and medium” (FUJIFILM Corporation, priority 2019, dated 2026).

Numbered stars: 1 amine (or outer) side, 2 acyl side, 3 side chain; on linkers, the order of the positions; unused ones are H or OH. Bridge positions count the residues as written; N and C are the ends. Square brackets hold non-standard residues; d marks the D form. Peptide text beside a SMILES is read from it. Pen = CC(C)(S)[C@H](N)C(=O)O; hCys = N[C@@H](CCS)C(=O)O; Orn = NCCC[C@H](N)C(=O)O; X1 = O=C(C[*:1])[*:2]; X2 = O=C(C[*:2])[*:1] Some results are limits rather than exact numbers.

For one series, the target named is human integrin αvβ5 (Homo sapiens, UniProt P06756+P18084). The series is described as follows: Evaluation of integrin binding property (surface plasmon resonance, Biacore 3000, immobilized cyclic peptide). The settings on record: peptide immobilized on CM5 sensor chip; human integrin αvβ5 30-1,000 nM, 25° C., HEPES buffer with 5 mM magnesium chloride; read-out: Integrin binding property (dissociation constant). The protocol:
A commercially available CM5 sensor chip (a carboxymethyl dextran introduction type, manufactured by GE Healthcare) was set in a surface plasmon resonance apparatus (product name: Biacore 3000, manufactured by GE Healthcare), the sensor was stabilized at a flow rate of 10 μL/min of a 4-(2-hydroxyethyl)-1-piperazineethanesulfonic acid (HEPES) buffer solution (20 mM HEPES-HCl, 150 mM NaCl, pH 7.4) for surface plasmon resonance (SPR), and 70 μL of a mixed aqueous solution of 0.2 M 1-(3-dimethylaminopropyl)-3-ethylcarbodiimide (EDC) and 0.04 M N-hydroxysuccinimide (NHS) was added thereto. Then, 300 μL of the sample solution of each of the above cyclic peptides diluted to 0.2 g/L with the HEPES buffer solution was supplied to the sensor chip, blocking treatment was subsequently carried out with an ethanolamine solution, and washing was carried out with a sodium hydroxide aqueous solution, whereby immobilization was carried out. However, only for the cyclic peptide 22, in which the number of lysine residues having an amino group as the immobilizing functional group was 1, the sample solution to be supplied to the sensor chip was set to 5,000 μL instead of 300 μL. Similarly; 70 μL of the mixed aqueous solution of 0.2 M EDC and 0.04 M NHS was added to another flow channel of the same sensor chip without immobilizing the sample, and then blocking treatment and washing treatment were carried out. Hereinafter, the obtained immobilization-treated sensor chip is referred to as an “immobilization-treated sensor chip A”.
After adding human integrin αvβ5 for 10 minutes at 25° C., which was diluted to 30 nM using a HEPES buffer solution to which magnesium chloride was added to 5 mM, in each flow channel of the immobilization-treated sensor chip A prepared in (1) above, the same HEPES buffer solution (containing 5 mM magnesium chloride) was allowed to flow as a running buffer for 30 minutes, and measurement was carried out with Biacore 3000.
Then, a regeneration treatment of removing human integrin αvβ5 was carried out by allowing a 0.5 M EDTA aqueous solution to flow through each flow channel for 10 minutes. Further, the above-described measurement process consisting of adding integrin for 10 minutes, allowing a running buffer to flow for 30 minutes, carrying out measurement with Biacore 3000, and carrying out regeneration treatment with 0.5 M EDTA aqueous solution was carried out in the same manner for 100 nM human integrin αvβ5, 300 nM human integrin αvβ5, and 1,000 nM human integrin αvβ5. Dissociation constant between the cyclic peptide and human integrin αvβ5 was calculated from the difference between the value measured by Biacore 3000 in the flow channel immobilized with the cyclic peptide and the value measured by Biacore 3000 in the flow channel unimmobilized with the cyclic peptide, in a case where each concentration of human integrin αvβ5 was allowed to flow; and the integrin binding property was evaluated according to the following evaluation standards. It is preferable that the evaluation result satisfies the evaluation standard A, B, or C.
A general note: Surface plasmon resonance follows binding to a sensor surface in real time, without labels.

Series [1] can be described thus: Evaluation of molecule stability (alkali treatment, LC/MS residual rate). The class given is physicochemical. Conditions: 500 μM peptide plus equivalent of 1 M sodium hydroxide, 15° C., 20 minutes, LC/MS peak area. The protocol: The molecule stability of the cyclic peptide was evaluated by analyzing the alkali-treated cyclic peptide aqueous solution by liquid chromatography mass spectroscopy (LC/MS).
The alkali treatment was carried out by the following method. A 500 μM cyclic peptide aqueous solution was prepared, an equivalent of 1 M sodium hydroxide aqueous solution was added to this aqueous solution, and the resultant mixture was incubated at 15° C. for 20 minutes to obtain an alkali-treated cyclic peptide aqueous solution. The cyclic peptide residual rate was calculated by setting the total area of all peaks of the cyclic peptide before alkali treatment in LC/MS to 100% and determining the proportion of the total area of all peaks in LC/MS of the alkali-treated cyclic peptide aqueous solution, and the molecule stability was evaluated according to the following evaluation standards. It is preferable that the evaluation result satisfies the evaluation standard A, B, or C.
The conditions of the LC/MS used for the evaluation of molecule stability were set as follows. • LC apparatus: Prominence series (pump, column oven, autosampler, detector) (manufactured by Shimadzu Corporation) • MS detector: LC/MS2010EV (manufactured by Shimadzu Corporation) • Column: Cadenza CD-C18, inner diameter 2.0 mm×length 250 mm, particle size: 3 μm (manufactured by Imtakt Corporation) • Eluent A: a solution (pH 3) containing 10 mM ammonium formate as a solute, where the solvent is 100% water. • Eluent B: a solution (pH 3) containing 10 mM ammonium formate as a solute, where the solvent is acetonitrile/water=90/10. • Flow rate: 0.2 mL/min • Injection volume: 4 μL • Gradient: 0% to 30%: Eluent B (0 to 30 minutes), 100%: Eluent B (30 to 40 minutes), 0%: Eluent B (40 to 60 minutes)(B indicates the eluent B) • Column temperature: 45° C. • Ionization method: electrospray ionization (ESI) positive, ESI negative

Chain of human integrin αvβ5 (P06756 31-889 limits assumed): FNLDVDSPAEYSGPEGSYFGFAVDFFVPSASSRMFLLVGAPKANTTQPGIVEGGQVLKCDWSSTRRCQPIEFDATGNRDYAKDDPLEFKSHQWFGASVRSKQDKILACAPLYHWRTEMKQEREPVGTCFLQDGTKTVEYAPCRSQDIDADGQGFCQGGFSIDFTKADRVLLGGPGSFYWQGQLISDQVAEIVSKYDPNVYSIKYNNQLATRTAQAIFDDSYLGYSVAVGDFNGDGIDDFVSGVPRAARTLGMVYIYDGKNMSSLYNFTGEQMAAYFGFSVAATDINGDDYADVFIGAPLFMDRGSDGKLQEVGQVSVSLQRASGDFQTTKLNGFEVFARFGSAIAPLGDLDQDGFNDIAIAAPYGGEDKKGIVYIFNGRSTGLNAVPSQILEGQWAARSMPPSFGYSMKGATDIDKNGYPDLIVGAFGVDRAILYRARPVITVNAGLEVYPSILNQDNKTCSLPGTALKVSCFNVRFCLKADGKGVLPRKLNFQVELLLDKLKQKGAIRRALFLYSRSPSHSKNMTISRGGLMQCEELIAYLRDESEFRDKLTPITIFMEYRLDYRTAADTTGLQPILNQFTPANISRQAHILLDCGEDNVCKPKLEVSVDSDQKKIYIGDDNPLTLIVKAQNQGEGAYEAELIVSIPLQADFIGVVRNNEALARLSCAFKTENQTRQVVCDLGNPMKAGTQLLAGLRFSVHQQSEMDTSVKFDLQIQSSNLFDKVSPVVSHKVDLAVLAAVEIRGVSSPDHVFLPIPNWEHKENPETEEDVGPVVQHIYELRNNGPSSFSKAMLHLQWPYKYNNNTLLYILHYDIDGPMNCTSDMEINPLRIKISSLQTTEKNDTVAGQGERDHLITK
Chain of human integrin αvβ5 (P06756 891-1048 partner limits assumed): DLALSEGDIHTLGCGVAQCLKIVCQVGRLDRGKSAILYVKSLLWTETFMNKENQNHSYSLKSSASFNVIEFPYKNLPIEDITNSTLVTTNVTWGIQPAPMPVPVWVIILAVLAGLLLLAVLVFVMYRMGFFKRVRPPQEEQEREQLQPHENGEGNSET
Chain of human integrin αvβ5 (P18084 24-799): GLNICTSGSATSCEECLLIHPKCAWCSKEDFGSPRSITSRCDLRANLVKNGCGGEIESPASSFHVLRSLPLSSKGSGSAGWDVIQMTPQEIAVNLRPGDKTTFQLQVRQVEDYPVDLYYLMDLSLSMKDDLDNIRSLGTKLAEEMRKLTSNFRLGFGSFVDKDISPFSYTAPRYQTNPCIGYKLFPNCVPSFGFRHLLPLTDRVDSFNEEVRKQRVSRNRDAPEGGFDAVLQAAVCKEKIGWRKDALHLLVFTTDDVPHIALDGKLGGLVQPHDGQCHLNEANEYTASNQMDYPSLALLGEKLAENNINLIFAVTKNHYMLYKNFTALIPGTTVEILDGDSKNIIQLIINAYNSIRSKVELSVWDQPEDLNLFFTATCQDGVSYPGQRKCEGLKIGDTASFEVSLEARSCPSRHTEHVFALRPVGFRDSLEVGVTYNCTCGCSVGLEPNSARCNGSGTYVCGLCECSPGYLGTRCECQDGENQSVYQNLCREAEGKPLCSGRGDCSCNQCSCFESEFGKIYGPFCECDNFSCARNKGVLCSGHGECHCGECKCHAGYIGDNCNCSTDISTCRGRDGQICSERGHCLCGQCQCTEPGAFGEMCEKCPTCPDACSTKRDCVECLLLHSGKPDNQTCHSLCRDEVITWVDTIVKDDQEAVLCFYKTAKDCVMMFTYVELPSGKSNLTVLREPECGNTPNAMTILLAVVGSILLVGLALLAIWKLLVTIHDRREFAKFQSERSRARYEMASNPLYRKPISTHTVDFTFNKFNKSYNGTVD

As for `CC[C@H](C)[C@@H]1NC(=O)CSCC[C@@H](C(=O)N[C@@H](CCCCN)C(=O)O)NC(=O)[C@H](Cc2ccccc2)NC(=O)[C@@H]2CCCCNC(=O)CSCC[C@H](NC1=O)C(=O)N[C@@H](CCCNC(=N)N)C(=O)NCC(=O)N[C@@H](CC(=O)O)C(=O)N2` [Cyclic peptide 22] ({CH2CO}-I[hCys]RGDKF[hCys]K-OH; linker 2-6 via X1; thioether N-8), at human integrin αvβ5, the Kd was less than 50 nM. Further, in series [1], the “Molecule stability (cyclic peptide residual rate)” value is reported as “A (The residual rate of the cyclic peptide is 70% or more.)”.

Regarding `CC[C@H](C)[C@@H]1NC(=O)CSC(C)(C)[C@@H](C(=O)N[C@@H](CCCCN)C(=O)N[C@@H](CCCCN)C(=O)N[C@@H](CCCCN)C(=O)O)NC(=O)[C@H](Cc2ccccc2)NC(=O)[C@@H]2CCSCC(=O)NCCC[C@H](NC1=O)C(=O)N[C@@H](CCCNC(=N)N)C(=O)NCC(=O)N[C@@H](CC(=O)O)C(=O)N2` [Cyclic peptide 23] ({CH2CO}-I[Orn]RGD[hCys]F[Pen]KKK-OH; linker 2-6 via X2; thioether N-8), at human integrin αvβ5, the Kd was less than 50 nM. Moreover, in series [1], the “Molecule stability (cyclic peptide residual rate)” value is “A (The residual rate of the cyclic peptide is 70% or more.)”.

As for `CC1(C)SCC(=O)N[C@@H](CCC(=O)O)C(=O)N[C@H]2CCCNC(=O)CSCC[C@H](NC(=O)[C@H](CC(=O)O)NC(=O)CNC(=O)[C@H](CCCNC(=N)N)NC2=O)C(=O)N[C@@H](Cc2ccccc2)C(=O)N[C@@H]1C(=O)N[C@@H](CCCCN)C(=O)N[C@@H](CCCCN)C(=O)N[C@@H](CCCCN)C(=O)O` [Cyclic peptide 24] ({CH2CO}-E[Orn]RGD[hCys]F[Pen]KKK-OH; linker 2-6 via X2; thioether N-8), on human integrin αvβ5, the Kd was less than 50 nM. Besides, the “Molecule stability (cyclic peptide residual rate)” value in series [1] is “A (The residual rate of the cyclic peptide is 70% or more.)”.

For the molecule `N=C(N)NCCC[C@@H]1NC(=O)[C@@H]2CCSCC(=O)NCCCC[C@H](NC(=O)[C@H](CC(=O)O)NC(=O)CNC1=O)C(=O)N[C@@H](Cc1ccccc1)C(=O)N[C@H](C(=O)N[C@@H](CCCCN)C(=O)N[C@@H](CCCCN)C(=O)N[C@@H](CCCCN)C(=O)O)CCSCC(=O)N[C@@H](Cc1ccc(O)cc1)C(=O)N2` [Cyclic peptide 25] ({CH2CO}-Y[hCys]RGDKF[hCys]KKK-OH; linker 2-6 via X1; thioether N-8), the Kd at human integrin αvβ5 was less than 50 nM. In addition, the “Molecule stability (cyclic peptide residual rate)” value in series [1] is on record as “A (The residual rate of the cyclic peptide is 70% or more.)”.

Regarding `CC(C)C[C@@H]1NC(=O)CSCC[C@@H](C(=O)N[C@@H](CCCCN)C(=O)N[C@@H](CCCCN)C(=O)N[C@@H](CCCCN)C(=O)O)NC(=O)[C@H](Cc2ccccc2)NC(=O)[C@@H]2CCCCNC(=O)CSCC[C@H](NC1=O)C(=O)N[C@@H](CCCNC(=N)N)C(=O)NCC(=O)N[C@@H](CC(=O)O)C(=O)N2` [Cyclic peptide 26] ({CH2CO}-L[hCys]RGDKF[hCys]KKK-OH; linker 2-6 via X1; thioether N-8), the Kd on human integrin αvβ5 is less than 50 nM. Also, the “Molecule stability (cyclic peptide residual rate)” value in series [1] is “A (The residual rate of the cyclic peptide is 70% or more.)”.

Regarding `C[C@@H](O)[C@@H]1NC(=O)CSCC[C@@H](C(=O)N[C@@H](CCCCN)C(=O)N[C@@H](CCCCN)C(=O)N[C@@H](CCCCN)C(=O)O)NC(=O)[C@H](Cc2ccccc2)NC(=O)[C@@H]2CCCCNC(=O)CSCC[C@H](NC1=O)C(=O)N[C@@H](CCCNC(=N)N)C(=O)NCC(=O)N[C@@H](CC(=O)O)C(=O)N2` [Cyclic peptide 27] ({CH2CO}-T[hCys]RGDKF[hCys]KKK-OH; linker 2-6 via X1; thioether N-8), at human integrin αvβ5, the Kd is less than 50 nM. Further, the “Molecule stability (cyclic peptide residual rate)” value in series [1] is recorded as “A (The residual rate of the cyclic peptide is 70% or more.)”.

On to `CC(C)[C@@H]1NC(=O)CSCC[C@@H](C(=O)N[C@@H](CCCCN)C(=O)N[C@@H](CCCCN)C(=O)N[C@@H](CCCCN)C(=O)O)NC(=O)[C@H](Cc2ccccc2)NC(=O)[C@@H]2CCCCNC(=O)CSCC[C@H](NC1=O)C(=O)N[C@@H](CCCNC(=N)N)C(=O)NCC(=O)N[C@@H](CC(=O)O)C(=O)N2` [Cyclic peptide 28] ({CH2CO}-V[hCys]RGDKF[hCys]KKK-OH; linker 2-6 via X1; thioether N-8), for which the Kd at human integrin αvβ5 is less than 50 nM. In series [1], the “Molecule stability (cyclic peptide residual rate)” value is “A (The residual rate of the cyclic peptide is 70% or more.)”.

In the case of `N=C(N)NCCC[C@@H]1NC(=O)[C@@H]2CCSCC(=O)NCCCC[C@H](NC(=O)[C@H](CC(=O)O)NC(=O)CNC1=O)C(=O)N[C@@H](Cc1ccccc1)C(=O)N[C@H](C(=O)N[C@@H](CCCCN)C(=O)N[C@@H](CCCCN)C(=O)N[C@@H](CCCCN)C(=O)O)CCSCC(=O)N[C@@H](CC(=O)O)C(=O)N2` [Cyclic peptide 29] ({CH2CO}-D[hCys]RGDKF[hCys]KKK-OH; linker 2-6 via X1; thioether N-8), the Kd on human integrin αvβ5 is less than 50 nM. Moreover, in series [1], the “Molecule stability (cyclic peptide residual rate)” value is recorded as “A (The residual rate of the cyclic peptide is 70% or more.)”.

In the case of `N=C(N)NCCC[C@@H]1NC(=O)[C@@H]2CCSCC(=O)NCCCC[C@H](NC(=O)[C@H](CC(=O)O)NC(=O)CNC1=O)C(=O)N[C@@H](Cc1ccccc1)C(=O)N[C@H](C(=O)N[C@@H](CCCCN)C(=O)N[C@@H](CCCCN)C(=O)N[C@@H](CCCCN)C(=O)O)CCSCC(=O)N[C@@H](CCC(=O)O)C(=O)N2` [Cyclic peptide 30] ({CH2CO}-E[hCys]RGDKF[hCys]KKK-OH; linker 2-6 via X1; thioether N-8), the Kd on human integrin αvβ5 was less than 50 nM. In addition, in series [1], the “Molecule stability (cyclic peptide residual rate)” value was “A (The residual rate of the cyclic peptide is 70% or more.)”.

As to `CC[C@H](C)[C@@H]1NC(=O)CSCC[C@@H](C(=O)N[C@@H](CCCCN)C(=O)N[C@@H](CCCCN)C(=O)N[C@@H](CCCCN)C(=O)O)NC(=O)[C@@H]2CCCN2C(=O)[C@@H]2CCCCNC(=O)CSCC[C@H](NC1=O)C(=O)N[C@@H](CCCNC(=N)N)C(=O)NCC(=O)N[C@@H](CC(=O)O)C(=O)N2` [Cyclic peptide 31] ({CH2CO}-I[hCys]RGDKP[hCys]KKK-OH; linker 2-6 via X1; thioether N-8), the Kd on human integrin αvβ5 is 50 to 100 nM. For the same molecule, in series [1], the “Molecule stability (cyclic peptide residual rate)” value is listed as “A (The residual rate of the cyclic peptide is 70% or more.)”.

Consider `CC[C@H](C)[C@@H]1NC(=O)CSCC[C@@H](C(=O)N[C@@H](CCCCN)C(=O)N[C@@H](CCCCN)C(=O)N[C@@H](CCCCN)C(=O)O)NC(=O)[C@H](Cc2ccc(O)cc2)NC(=O)[C@@H]2CCCCNC(=O)CSCC[C@H](NC1=O)C(=O)N[C@@H](CCCNC(=N)N)C(=O)NCC(=O)N[C@@H](CC(=O)O)C(=O)N2` [Cyclic peptide 32] ({CH2CO}-I[hCys]RGDKY[hCys]KKK-OH; linker 2-6 via X1; thioether N-8), for which the Kd on human integrin αvβ5 was 50 to 100 nM. Moreover, in series [1], the “Molecule stability (cyclic peptide residual rate)” value is given as “A (The residual rate of the cyclic peptide is 70% or more.)”.
